Results published in article PMC4613811 (Lung cancer (Amsterdam, Netherlands), 2015).
Where two headings read alike, the source gives them in different places. Each block holds one compound with its values, some of them ahead of it.

How the values were obtained:
CYP1A2 = conditions: caffeine as CYP1A2 substrate; cited from earlier work
CYP3A4 = conditions: in vitro; cited from earlier work
[1] = cited from earlier work
FMO3 = conditions: in vitro; cited from earlier work
[2] = previous studies with dovitinib; cited from earlier work
[3] = Plasma pharmacokinetics of dovitinib, phase I trial; type: in vivo; conditions: human, oral
[4] = system: NSCLC with EGFR activating mutations; conditions: cited from earlier work
[5] = cited from earlier work; remark: listed apart in the source
[6] = NSCLC patients who currently smoke; cited from earlier work
[7] = co-administered strong CYP3A4 inducer rifampin; cited from earlier work
[8] = type: in vivo, human
[9] = healthy volunteers, 150 mg dose, cited from earlier work
[10] = post-dovitinib relative to pre-dovitinib

- Tmax [3]: 6 h
- half-life [3]: 32 ± 19 h
Compound: CN1CCN(c2ccc3nc(-c4c(N)c5c(F)cccc5[nH]c4=O)[nH]c3c2)CC1 [Dovitinib]
- reduction of the AUC of caffeine (CYP1A2): 96%
- share of metabolism by CYP3A4 (CYP3A4): 17–35%
- effect of food on bioavailability [1]: food does not alter the bioavailability
- share of metabolism by FMO3 (FMO3): 65–83%
- decreased appetite, regardless of grade [2]: 37.0%
- diarrhea, regardless of grade [2]: 68%
- fatigue, regardless of grade [2]: 40.5%
- nausea, regardless of grade [2]: 66.7%
- vomiting, regardless of grade [2]: 60.6%

- AUC(0-t) ([8]; human, plasma, oral, 150 mg): 41000 ng·h/mL
- half-life ([8]; human, plasma, oral, 150 mg): 50 ± 53 h
- decrease in AUC0–24 during dovitinib co-administration ([8]; p < 0.01, six patients): 97%
- decrease in Cmax during dovitinib co-administration ([8]; p = 0.02, six patients): 93%
- AUC0–24h geometric mean ratio (D + E:E), mean [8, 10]: 0.03
- Cmax geometric mean ratio (D + E:E), mean [8, 10]: 0.07
- T1/2, terminal geometric mean ratio (D + E:E), mean [8, 10]: 0.10
Compound: C#Cc1cccc(Nc2ncnc3cc(OCCOC)c(OCCOC)cc23)c1 [Erlotinib]
- time to development of resistance in the majority of patients ([4]; NSCLC patients with EGFR activating mutations): less than 1 year
- response rates (RRs) ([4]; NSCLC patients with known EGFR activating mutations): 60–70%
- median half-life [5]: 36.2 h
- steady-state trough concentration, fold lower compared to non-smokers [6]: 2 fold
- decrease in AUC with rifampin [7]: 66%
- decrease in Cmax with rifampin [7]: 29%
- AUC ([9]; non-smokers): 18,726 ng × h/mL
- Cmax ([9]; nonsmokers): 1056 ng/mL
- decrease in AUC in smokers ([9]; smokers vs non-smokers): 64%
- decrease in Cmax in smokers ([9]; smokers vs nonsmokers): 35%
- AUC ([9]; smokers): 6718 ng·h/mL
- Cmax ([9]; smokers): 689 ng/mL

- AUC0–24h ([8]; Erlotinib alone (E), Day 14 ± 4, normalized to erlotinib 150 mg dose, mean ± SD): 5381 ± 2982 ng·h/mL
- AUC0–24h geometric mean ratio (D + E:E), mean [8, 10]: 0.06
- Cmax geometric mean ratio (D + E:E), mean [8, 10]: 0.17
Compound: C#Cc1cccc(Nc2ncnc3cc(OCCOC)c(OCCO)cc23)c1 [OSI-420]
